Results: ChEMBL document CHEMBL1201862, “PubChem BioAssay data set” (2004)
Calls of active or inactive are those of the source.

Legend:
[1] = target: Glucose-6-phosphate 1-dehydrogenase (Homo sapiens, UniProt P11413); assay: inhibition of Homo sapiens G6PD, dose series – biochemical, fluorescence, selectivity assay for P. falciparum G6PD inhibitor project, dose response (AID 504792); format: functional
[2] = target: T1, RNA-binding protein pos-1 (Caenorhabditis elegans, UniProt G5EF15); assay: disruptors of C. elegans POS-1 RNA interaction – biochemical, fluorescence polarization, dose response (AID 1964);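 note: purified POS-1 fused to maltose binding protein made in E. coli; potency of compounds blocking POS-1 binding to fluorescent RNA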
T1 sequence (G5EF15 whole entry): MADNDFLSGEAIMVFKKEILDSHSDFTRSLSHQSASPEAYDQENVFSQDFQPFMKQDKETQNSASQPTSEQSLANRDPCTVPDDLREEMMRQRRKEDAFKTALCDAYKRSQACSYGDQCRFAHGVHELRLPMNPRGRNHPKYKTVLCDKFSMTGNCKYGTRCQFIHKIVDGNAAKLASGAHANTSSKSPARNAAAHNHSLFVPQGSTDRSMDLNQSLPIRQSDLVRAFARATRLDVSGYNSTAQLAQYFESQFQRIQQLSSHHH

[3] = target: T2, Zinc finger protein mex-5 (Caenorhabditis elegans, UniProt Q9XUB2); assay: potency of MEX-5 RNA-binding blockers – biochemical, C. elegans, fluorescence polarization, dose response (AID 1960)
T2 sequence (Q9XUB2 whole entry): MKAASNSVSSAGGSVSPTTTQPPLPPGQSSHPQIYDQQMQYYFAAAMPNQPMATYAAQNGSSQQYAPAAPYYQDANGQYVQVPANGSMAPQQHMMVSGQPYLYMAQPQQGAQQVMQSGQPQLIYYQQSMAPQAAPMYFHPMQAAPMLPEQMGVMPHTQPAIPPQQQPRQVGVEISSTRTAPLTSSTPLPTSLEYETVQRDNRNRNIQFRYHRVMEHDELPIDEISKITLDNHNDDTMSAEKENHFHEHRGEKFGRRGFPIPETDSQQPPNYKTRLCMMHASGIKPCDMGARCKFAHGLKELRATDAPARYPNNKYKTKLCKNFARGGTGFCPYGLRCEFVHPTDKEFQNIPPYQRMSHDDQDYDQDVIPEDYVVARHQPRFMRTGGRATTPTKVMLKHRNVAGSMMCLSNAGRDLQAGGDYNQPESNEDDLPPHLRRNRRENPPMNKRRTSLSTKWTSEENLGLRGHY

Hexokinase HKDC1 = target: T3, Hexokinase HKDC1 (Homo sapiens, UniProt Q2TB90); assay: inhibition of HKDC1 glucose phosphorylation – biochemical, W721R variant, dose response (AID 504729); format: functional
T3 sequence (Q2TB90 whole entry): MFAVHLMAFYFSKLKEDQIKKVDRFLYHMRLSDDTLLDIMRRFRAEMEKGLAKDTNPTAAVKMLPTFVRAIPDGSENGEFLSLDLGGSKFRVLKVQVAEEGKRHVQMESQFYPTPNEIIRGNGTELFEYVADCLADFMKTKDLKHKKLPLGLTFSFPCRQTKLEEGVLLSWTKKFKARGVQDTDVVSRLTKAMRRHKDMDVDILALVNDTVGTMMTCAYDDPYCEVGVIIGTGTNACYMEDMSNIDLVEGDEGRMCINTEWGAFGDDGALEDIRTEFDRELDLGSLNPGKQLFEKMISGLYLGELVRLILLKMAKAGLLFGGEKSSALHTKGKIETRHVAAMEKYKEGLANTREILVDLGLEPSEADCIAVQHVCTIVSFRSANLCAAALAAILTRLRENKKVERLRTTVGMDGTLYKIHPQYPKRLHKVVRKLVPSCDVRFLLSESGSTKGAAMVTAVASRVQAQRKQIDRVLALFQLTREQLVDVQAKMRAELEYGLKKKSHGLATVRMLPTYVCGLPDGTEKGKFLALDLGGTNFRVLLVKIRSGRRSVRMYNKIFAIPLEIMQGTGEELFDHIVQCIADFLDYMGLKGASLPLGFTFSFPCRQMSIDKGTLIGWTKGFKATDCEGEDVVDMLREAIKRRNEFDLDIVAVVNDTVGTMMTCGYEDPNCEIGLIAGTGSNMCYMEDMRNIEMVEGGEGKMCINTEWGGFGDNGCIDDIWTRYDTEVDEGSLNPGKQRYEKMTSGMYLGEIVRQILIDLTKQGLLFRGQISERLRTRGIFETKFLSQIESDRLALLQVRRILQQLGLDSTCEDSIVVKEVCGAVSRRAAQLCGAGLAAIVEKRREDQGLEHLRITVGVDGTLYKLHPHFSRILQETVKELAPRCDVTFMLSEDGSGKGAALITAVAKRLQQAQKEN

[4] = target: T4, Polyadenylate-binding protein 1 (Homo sapiens, UniProt P11940); assay: MLLE binding blockers, Cy5 peptide tracer – biochemical, fluorescence polarization, Cy5-PAM2 peptide, secondary, miRNA deadenylation inhibitor project, dose response (AID 602260); format: functional; settings: read-out: IC50_Mean
[5] = target: T4, Polyadenylate-binding protein 1; assay: MLLE domain peptide-binding blockers, IC50 – biochemical, fluorescence polarization, FITC-PAM2 peptide, dose response (AID 602259); format: functional; settings: read-out: IC50_Mean
[6] = target: Lysosomal acid glucosylceramidase (Homo sapiens, UniProt P04062); assay: Dose response cell-based high throughput screening assay to identify enhancers of beta-glucosidase activity. [Related pubchem assays: 784 ]; format: functional
[7] = target: Melanin-concentrating hormone receptor 1 (Homo sapiens, UniProt Q99705); assay: Late-stage fluorescence-based counterscreen for antagonists of the G-protein coupled receptor 7 (GPR7): cell-based dose response assay to identify antagonists of the melanin-concentrating hormone receptor 1 (MCHR1). [Related pubchem assays (depositor defined):AID1861, AID1880, AID1952, AID2148, AID2251, AID2257, AID485339]; format: functional;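 note: stimulated with 30 nM MCH peptide agonist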
[8] = target: Acyl-homoserine lactone acylase PvdQ (Pseudomonas aeruginosa (strain LESB58), UniProt Q9I194); assay: PvdQ acylase enzyme activity blockers – biochemical, fluorescence, plate reader and imaging, cherry-picks, dose response (AID 493231)
Acyl-homoserine lactone acylase PvdQ, sequence (Q9I194 24-193 limits assumed): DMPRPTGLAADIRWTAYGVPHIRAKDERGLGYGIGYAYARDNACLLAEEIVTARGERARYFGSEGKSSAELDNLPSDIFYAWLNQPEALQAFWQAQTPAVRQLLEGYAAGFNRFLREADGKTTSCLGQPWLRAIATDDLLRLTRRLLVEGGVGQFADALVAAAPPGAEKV
Acyl-homoserine lactone acylase PvdQ, sequence (Q9I194 217-762 limits assumed): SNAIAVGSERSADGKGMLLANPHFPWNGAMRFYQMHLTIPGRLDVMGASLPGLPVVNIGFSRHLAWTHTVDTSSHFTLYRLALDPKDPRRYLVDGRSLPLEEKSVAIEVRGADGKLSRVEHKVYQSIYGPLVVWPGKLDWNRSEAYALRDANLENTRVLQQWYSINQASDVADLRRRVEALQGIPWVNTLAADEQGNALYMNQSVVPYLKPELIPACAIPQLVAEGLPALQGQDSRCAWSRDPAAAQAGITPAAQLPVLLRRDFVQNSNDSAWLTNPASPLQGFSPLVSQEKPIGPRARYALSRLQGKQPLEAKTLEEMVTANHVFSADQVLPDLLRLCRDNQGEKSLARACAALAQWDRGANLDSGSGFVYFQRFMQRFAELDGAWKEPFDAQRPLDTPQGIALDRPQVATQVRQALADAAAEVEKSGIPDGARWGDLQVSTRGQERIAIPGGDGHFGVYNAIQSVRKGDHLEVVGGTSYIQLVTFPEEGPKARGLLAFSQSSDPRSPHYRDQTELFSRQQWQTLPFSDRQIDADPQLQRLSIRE

T4 sequence (P11940 whole entry, the tested form may be a part): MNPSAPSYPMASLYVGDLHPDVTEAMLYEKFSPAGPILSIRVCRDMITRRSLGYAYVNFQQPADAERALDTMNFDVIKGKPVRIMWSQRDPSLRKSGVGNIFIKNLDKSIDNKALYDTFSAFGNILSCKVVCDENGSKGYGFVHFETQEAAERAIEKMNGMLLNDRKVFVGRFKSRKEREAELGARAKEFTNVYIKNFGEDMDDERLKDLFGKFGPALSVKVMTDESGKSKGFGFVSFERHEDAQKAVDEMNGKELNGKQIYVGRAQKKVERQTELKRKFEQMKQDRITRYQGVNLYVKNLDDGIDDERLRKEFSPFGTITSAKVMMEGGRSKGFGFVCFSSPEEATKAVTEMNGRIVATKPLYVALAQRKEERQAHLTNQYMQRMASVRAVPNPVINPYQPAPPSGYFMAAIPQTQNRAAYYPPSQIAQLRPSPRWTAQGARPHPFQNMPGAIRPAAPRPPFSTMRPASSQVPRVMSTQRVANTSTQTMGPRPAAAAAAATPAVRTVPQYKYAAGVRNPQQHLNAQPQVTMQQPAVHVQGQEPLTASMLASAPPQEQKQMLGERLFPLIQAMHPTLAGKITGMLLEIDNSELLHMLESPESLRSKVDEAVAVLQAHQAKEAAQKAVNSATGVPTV
Lysosomal acid glucosylceramidase, sequence (P04062 whole entry): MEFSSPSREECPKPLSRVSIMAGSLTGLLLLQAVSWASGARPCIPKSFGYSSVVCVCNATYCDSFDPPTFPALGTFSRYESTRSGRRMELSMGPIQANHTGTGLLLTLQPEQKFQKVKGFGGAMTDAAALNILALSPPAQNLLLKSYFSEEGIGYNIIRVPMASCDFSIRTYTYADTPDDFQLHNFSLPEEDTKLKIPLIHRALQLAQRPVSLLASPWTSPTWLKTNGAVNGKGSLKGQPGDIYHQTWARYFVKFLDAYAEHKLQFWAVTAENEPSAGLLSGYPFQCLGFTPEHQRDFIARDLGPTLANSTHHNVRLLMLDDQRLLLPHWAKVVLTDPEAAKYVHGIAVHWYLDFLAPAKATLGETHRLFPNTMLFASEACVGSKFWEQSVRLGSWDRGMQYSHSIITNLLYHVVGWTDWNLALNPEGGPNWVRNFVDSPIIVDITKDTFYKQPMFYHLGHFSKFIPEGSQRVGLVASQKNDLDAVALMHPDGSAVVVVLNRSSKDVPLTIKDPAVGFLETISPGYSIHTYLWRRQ
Glucose-6-phosphate 1-dehydrogenase, sequence (P11413 whole entry, the tested form may be a part): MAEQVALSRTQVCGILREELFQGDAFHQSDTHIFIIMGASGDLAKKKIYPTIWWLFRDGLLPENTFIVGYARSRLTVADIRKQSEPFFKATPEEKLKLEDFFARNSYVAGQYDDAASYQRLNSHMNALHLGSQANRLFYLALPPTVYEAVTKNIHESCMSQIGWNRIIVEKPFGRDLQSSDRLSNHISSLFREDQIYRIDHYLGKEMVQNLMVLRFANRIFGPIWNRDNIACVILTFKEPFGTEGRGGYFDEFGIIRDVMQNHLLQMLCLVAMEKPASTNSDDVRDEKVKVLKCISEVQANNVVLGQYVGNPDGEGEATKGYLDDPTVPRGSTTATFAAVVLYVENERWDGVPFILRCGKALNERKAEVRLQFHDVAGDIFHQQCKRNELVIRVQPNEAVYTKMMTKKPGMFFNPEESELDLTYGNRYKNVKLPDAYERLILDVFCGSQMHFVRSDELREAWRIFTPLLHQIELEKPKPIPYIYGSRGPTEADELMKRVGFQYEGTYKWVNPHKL
Melanin-concentrating hormone receptor 1, sequence (Q99705 whole entry): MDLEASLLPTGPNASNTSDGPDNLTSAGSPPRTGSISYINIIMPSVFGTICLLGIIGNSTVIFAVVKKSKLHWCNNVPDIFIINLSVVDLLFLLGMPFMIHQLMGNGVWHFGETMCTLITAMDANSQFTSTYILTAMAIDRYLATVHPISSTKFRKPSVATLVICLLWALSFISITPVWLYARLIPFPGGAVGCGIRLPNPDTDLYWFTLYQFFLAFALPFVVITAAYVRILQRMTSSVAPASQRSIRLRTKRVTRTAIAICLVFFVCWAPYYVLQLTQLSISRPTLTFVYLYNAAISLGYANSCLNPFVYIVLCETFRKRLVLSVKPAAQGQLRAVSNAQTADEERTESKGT

Q: Which results are given for `CN(C)Cc1cc(O)c(CN(C)C)cc1O`?
A: IC50 [1]: 34.7 µM (inactive); EC50 [2]: 22.3 µM (inconclusive); EC50 [3]: 5.82 µM (active); IC50 (Hexokinase HKDC1): 49.6 µM (inactive); IC50 [4]: > 66 µM (inactive); IC50 [5]: 50.7 µM (inactive)

Q: How did the EC50 [6] turn out when `C=CCSC1=N/C(=C\c2ccsc2)C(=O)S1` was run?
A: > 50 µM (not active)

Q: How did the IC50 [7] turn out when `CCOC(=O)c1ccc(-n2ncc(Cl)c(Oc3ccc(OC)cc3)c2=O)cc1` was run?
A: 4 µM (active)

Q: Which AC50 [8] does the source give for `N#CC(c1ccc(Cl)cc1)c1ccc(Cl)nn1` (centres undefined) here?
A: 0.991 µM (active)
